Data from patent publication US20250205350A1, “Antibody-Drug Conjugates and Uses Thereof” (Vivasor, Inc., priority 2022, published 2025).

tested on: MDA-MB-468 (HER2−); assay: In vitro cell viability (CellTiter-Glo) of camptothecin derivatives in MDA-MB-468; format: cell-based, human; details: Homo sapiens, MDA-MB-468, 120 h, Table 4A; 120-hour assay; derivatives as TFA salt, exatecan mesylate
Experimental: (§1) The in vitro efficacies of camptothecin derivatives were evaluated using the following human cancer cell lines: SkBr-3 (Her2+) and MDA-MB-468 (HER2−), purchased from the American Type Culture Collection (ATCC; Manassas, VA) and were routinely cultured in DMEM/F-12 medium (Catalog #10-090-CV; Corning) supplemented with 10% fetal bovine serum (FBS; Catalog #MT35011CV; Corning) and 1× Penicillin-Streptomycin (Catalog #30-002-CI; Corning) and maintained at 37° C. with 5% CO2 in a humidified environment.
(§2) Tumor cells were harvested by detachment with cell stripper. Viable cell counts were made by Trypan blue exclusion using a Countess or Countess II automated cell counter. Cell Viability Assay: All cells were harvested and seeded into 384-well white wall clear bottom plates (Catalog #3765; Corning) at a density of 875 cells/well in DMEM/F-12 medium supplemented with 10% fetal bovine serum and 1× Penicillin-Streptomycin (complete growth media). Plates were maintained at 37° C. for 4-6 hours to allow cells to adhere to the plate. The outer wells of plates contained complete growth medium only and were used for background subtraction for the cell viability assay. Working solutions of test articles were prepared at 2× final concentrations with 5-fold serial dilutions in complete growth medium. Cell treatment was performed in triplicates and maintained at 37° C. for 120-hour assay. After treatment, cell viability was determined by CellTiter-Glo 2.0 assay (Catalog #G9243; Promega; Madison, WI, USA) based on the manufacturer's instructions. CellTiter Glo reagent reacts with ATP in metabolically active cells to give a luminescent readout that is directly proportional to the number of viable cells. Briefly, plates were removed from the incubator and equilibrated to room temperature before addition of CellTiter Glo reagent. Luminescence was measured using a Tecan Spark microplate reader (Tecan; Mannedorf, Switzerland).
(§3) For Cytotoxicity assays, raw luminescence data was background subtracted with average luminescence from the outer wells containing medium only and normalized to untreated controls using Excel (Microsoft; […]). Dose-response relationships and EC50 values were determined based on non-linear regression analysis of normalized data fit to a four-parameter logistic equation using GraphPad Prism 8.0.

Row | SMILES | EC50 [nM]
1 | CC[C@]1(O)C(=O)OCc2c1cc1n(c2=O)Cc2c-1nc1cc(F)c(C)c3c1c2[C@H](NC(=O)[C@H]1CCCN1)CC3 [Compound L078-065] | 6
2 | CC[C@]1(O)C(=O)OCc2c1cc1n(c2=O)Cc2c-1nc1cc(F)c(C)c3c1c2[C@H](NC(=O)[C@H]1COCCN1)CC3 [Compound L078-049] | 4.7
3 | CC[C@@]1(O)C(=O)OCc2c1cc1n(c2=O)Cc2c-1nc1cc(F)c(C)c3c1c2[C@@H](N)CC3 [Exatecan, exatecan, reference compound] | 1.1
4 | CC[C@]1(O)C(=O)OCc2c1cc1n(c2=O)Cc2c-1nc1cc(F)c(C)c3c1c2[C@H](NC(=O)[C@@H]1CCCN1)CC3 [Compound L078-066] | 5.6
5 | CC[C@]1(O)C(=O)OCc2c1cc1n(c2=O)Cc2c-1nc1cc(F)c(C)c3c1c2[C@H](NC(=O)[C@@H]1CCN1)CC3 [Compound L078-043] | 3.7
6 | CC[C@@]1(O)C(=O)OCc2c1cc1n(c2=O)Cc2c-1nc1cc(F)c(C)c3c1c2[C@@H](NC(=O)CO)CC3 [Dxd, reference compound] | 2
7 | CC[C@]1(O)C(=O)OCc2c1cc1n(c2=O)Cc2c-1nc1cc(F)c(C)c3c1c2[C@H](NC(=O)[C@H]1CCN1)CC3 [Compound L078-042] | 5.7
8 | CC[C@]1(O)C(=O)OCc2c1cc1n(c2=O)Cc2c-1nc1cc(F)c(C)c3c1c2[C@H](NC(=O)[C@@H]1COCCN1)CC3 [Compound L078-048] | 5.7
9 | CC[C@]1(O)C(=O)OCc2c1cc1n(c2=O)Cc2c-1nc1cc(F)c(C)c3c1c2[C@H](NC(=O)[C@@H]1C[C@@H](F)CN1)CC3 [Compound L078-051] | 5.4
10 | CC[C@]1(O)C(=O)OCc2c1cc1n(c2=O)Cc2c-1nc1cc(F)c(C)c3c1c2[C@H](NC(=O)[C@H]1CNCCO1)CC3 [Compound L078-046] | 5.7
11 | CC[C@]1(O)C(=O)OCc2c1cc1n(c2=O)Cc2c-1nc1cc(F)c(C)c3c1c2[C@H](NC(=O)C1CNC1)CC3 [Compound L078-030] | 57.2
12 | CC[C@]1(O)C(=O)OCc2c1cc1n(c2=O)Cc2c-1nc1cc(F)c(C)c3c1c2[C@H](NC(=O)[C@@H]1CNCCO1)CC3 [Compound L078-047] | 15.7

same assay, conditions: Homo sapiens, MDA-MB-468, 120 h, Table 4B; 120-hour assay

Row | SMILES | EC50 [nM]
13 | CC[C@]1(O)C(=O)OCc2c1cc1n(c2=O)Cc2c-1nc1cc(F)c(C)c3c1c2[C@H](NC(=O)C1(N)CCOC1)CC3 (stereo partly drawn) [Compound L078-149] | 5.01
14 | CC[C@@]1(O)C(=O)OCc2c1cc1n(c2=O)Cc2c-1nc1cc(F)c(C)c3c1c2[C@@H](N)CC3 [Exatecan, exatecan, reference compound] | 1.99
15 | CC[C@]1(O)C(=O)OCc2c1cc1n(c2=O)Cc2c-1nc1cc(F)c(C)c3c1c2[C@H](NC(=O)C1(N)COC1)CC3 [Compound L078-088] | 7.32
16 | CC[C@@]1(O)C(=O)OCc2c1cc1n(c2=O)Cc2c-1nc1cc(F)c(C)c3c1c2[C@@H](NC(=O)CO)CC3 [Dxd, reference compound] | 3.16

same assay, conditions: Table 4A; 120-hour assay; derivatives as TFA salt, exatecan mesylate

Row | SMILES | EC50 [nM]
17 | CC[C@]1(O)C(=O)OCc2c1cc1n(c2=O)Cc2c-1nc1cc(F)c(C)c3c1c2[C@H](NC(=O)c1cccc(N)n1)CC3 [Compound L078-029] | 2
18 | CC[C@]1(O)C(=O)OCc2c1cc1n(c2=O)Cc2c-1nc1cc(F)c(C)c3c1c2[C@H](NC(=O)C1CCNCC1)CC3 [Compound L078-081] | 81.4

same assay, conditions: Table 4B; 120-hour assay

Row | SMILES | EC50 [nM]
19 | CC[C@]1(O)C(=O)OCc2c1cc1n(c2=O)Cc2c-1nc1cc(F)c(C)c3c1c2[C@H](NC(=O)C1(N)CCOCC1)CC3 [Compound L078-150] | 3.01

tested on: HER2-negative MDA-MB-468; assay: In vitro cell viability (CellTiter-Glo) of anti-HER2 ADCs in MDA-MB-468; format: cell-based; details: Homo sapiens, MDA-MB-468, 120 h, Table 5; 120-hour assay
Experimental: as §1, with “ADCs” for “The in vitro efficacies of camptothecin derivatives”, “HER2-positive SkBr-3, HER2-positive NCI-N87,” for “SkBr-3 (Her2+)”, “HER2-negative MDA-MB-468,” for “MDA-MB-468 (HER2−),”, “#[…];” for “#10-090-CV;”
(§4) Tumor cells were harvested by detachment with cell stripper. Viable cell counts were made by Trypan blue exclusion using a Countess or Countess II automated cell counter. […] After treatment, cell viability was determined by CellTiter-Glo 2.0 assay (Catalog #G9243; Promega; Madison, WI, USA) based on the manufacturer's instructions. CellTiter Glo reagent reacts with ATP in metabolically active cells to give a luminescent readout that is directly proportional to the number of viable cells. […] Luminescence was measured using a Tecan Spark microplate reader (Tecan; Mannedorf, Switzerland).
(§5) For Cytotoxicity assays, raw luminescence data was background subtracted with average luminescence from the outer wells containing medium only and normalized to untreated controls using Excel (Microsoft; Albuquerque, NM). […]

Row | SMILES | EC50 [nM]
20 | CC[C@@]1(O)C(=O)OCc2c1cc1n(c2=O)Cc2c-1nc1cc(F)c(C)c3c1c2[C@@H](NC(=O)CO)CC3 [Dxd, reference compound] | 2.55

same assay, conditions: Homo sapiens, MDA-MB-468, 120 h, Table 6; 120-hour assay

Row | SMILES | EC50 [nM]
21 | CC[C@@]1(O)C(=O)OCc2c1cc1n(c2=O)Cc2c-1nc1cc(F)c(C)c3c1c2[C@@H](NC(=O)CO)CC3 [Dxd, reference compound] | 2.57

tested on: SkBr-3 (Her2+); assay: In vitro cell viability (CellTiter-Glo) of camptothecin derivatives in SkBr-3; format: cell-based, human; details: Homo sapiens, SK-BR-3, 120 h, Table 4A; 120-hour assay; derivatives as TFA salt, exatecan mesylate
Experimental: as §1, §2, §3

Row | SMILES | EC50 [nM]
22 | CC[C@]1(O)C(=O)OCc2c1cc1n(c2=O)Cc2c-1nc1cc(F)c(C)c3c1c2[C@H](NC(=O)[C@H]1CCCN1)CC3 [Compound L078-065] | 3.2
23 | CC[C@]1(O)C(=O)OCc2c1cc1n(c2=O)Cc2c-1nc1cc(F)c(C)c3c1c2[C@H](NC(=O)[C@H]1COCCN1)CC3 [Compound L078-049] | 2.3
24 | CC[C@@]1(O)C(=O)OCc2c1cc1n(c2=O)Cc2c-1nc1cc(F)c(C)c3c1c2[C@@H](N)CC3 [Exatecan, exatecan, reference compound] | 0.69
25 | CC[C@]1(O)C(=O)OCc2c1cc1n(c2=O)Cc2c-1nc1cc(F)c(C)c3c1c2[C@H](NC(=O)[C@@H]1CCCN1)CC3 [Compound L078-066] | 3
26 | CC[C@]1(O)C(=O)OCc2c1cc1n(c2=O)Cc2c-1nc1cc(F)c(C)c3c1c2[C@H](NC(=O)[C@@H]1CCN1)CC3 [Compound L078-043] | 1.8
27 | CC[C@@]1(O)C(=O)OCc2c1cc1n(c2=O)Cc2c-1nc1cc(F)c(C)c3c1c2[C@@H](NC(=O)CO)CC3 [Dxd, reference compound] | 2.2
28 | CC[C@]1(O)C(=O)OCc2c1cc1n(c2=O)Cc2c-1nc1cc(F)c(C)c3c1c2[C@H](NC(=O)[C@H]1CCN1)CC3 [Compound L078-042] | 2.3
29 | CC[C@]1(O)C(=O)OCc2c1cc1n(c2=O)Cc2c-1nc1cc(F)c(C)c3c1c2[C@H](NC(=O)[C@@H]1COCCN1)CC3 [Compound L078-048] | 5.6
30 | CC[C@]1(O)C(=O)OCc2c1cc1n(c2=O)Cc2c-1nc1cc(F)c(C)c3c1c2[C@H](NC(=O)[C@@H]1C[C@@H](F)CN1)CC3 [Compound L078-051] | 2.8
31 | CC[C@]1(O)C(=O)OCc2c1cc1n(c2=O)Cc2c-1nc1cc(F)c(C)c3c1c2[C@H](NC(=O)[C@H]1CNCCO1)CC3 [Compound L078-046] | 5.5
32 | CC[C@]1(O)C(=O)OCc2c1cc1n(c2=O)Cc2c-1nc1cc(F)c(C)c3c1c2[C@H](NC(=O)C1CNC1)CC3 [Compound L078-030] | 49.6
33 | CC[C@]1(O)C(=O)OCc2c1cc1n(c2=O)Cc2c-1nc1cc(F)c(C)c3c1c2[C@H](NC(=O)[C@@H]1CNCCO1)CC3 [Compound L078-047] | 11

same assay, conditions: Homo sapiens, SK-BR-3, 120 h, Table 4B; 120-hour assay

Row | SMILES | EC50 [nM]
34 | CC[C@]1(O)C(=O)OCc2c1cc1n(c2=O)Cc2c-1nc1cc(F)c(C)c3c1c2[C@H](NC(=O)C1(N)CCOC1)CC3 (stereo partly drawn) [Compound L078-149] | 7.71
35 | CC[C@]1(O)C(=O)OCc2c1cc1n(c2=O)Cc2c-1nc1cc(F)c(C)c3c1c2[C@H](NC(=O)C1(N)COC1)CC3 [Compound L078-088] | 2.72
36 | CC[C@@]1(O)C(=O)OCc2c1cc1n(c2=O)Cc2c-1nc1cc(F)c(C)c3c1c2[C@@H](NC(=O)CO)CC3 [Dxd, reference compound] | 3.66

same assay, conditions: Table 4A; 120-hour assay; derivatives as TFA salt, exatecan mesylate

Row | SMILES | EC50 [nM]
37 | CC[C@]1(O)C(=O)OCc2c1cc1n(c2=O)Cc2c-1nc1cc(F)c(C)c3c1c2[C@H](NC(=O)c1cccc(N)n1)CC3 [Compound L078-029] | 0.8
38 | CC[C@]1(O)C(=O)OCc2c1cc1n(c2=O)Cc2c-1nc1cc(F)c(C)c3c1c2[C@H](NC(=O)C1CCNCC1)CC3 [Compound L078-081] | 163

tested on: HER2-positive SkBr-3; assay: In vitro cell viability (CellTiter-Glo) of anti-HER2 ADCs in SkBr-3; format: cell-based; details: Homo sapiens, SK-BR-3, 120 h, Table 6; 120-hour assay
Experimental: as §1, with “ADCs” for “The in vitro efficacies of camptothecin derivatives”, “HER2-positive SkBr-3, HER2-positive NCI-N87,” for “SkBr-3 (Her2+)”, “HER2-negative MDA-MB-468,” for “MDA-MB-468 (HER2−),”, “#[…];” for “#10-090-CV;”
as §4, §5

Row | SMILES | EC50 [nM]
39 | CC[C@@]1(O)C(=O)OCc2c1cc1n(c2=O)Cc2c-1nc1cc(F)c(C)c3c1c2[C@@H](NC(=O)CO)CC3 [Dxd, reference compound] | 3.84
